# Data: ChEMBL document CHEMBL5143732 (J Med Chem, 2022)
# What was measured:
# Type in all cases: functional
# Cryptococcus neoformans = assay: Antifungal activity against Cryptococcus neoformans ATCC 32609 assessed as inhibition of fungal growth measured after 48 hrs by CLSI based agar dilution method
# Candida parapsilosis = assay: Antifungal activity against Candida parapsilosis assessed as inhibition of fungal growth measured after 48 hrs by CLSI based agar dilution method; settings: Lodderomyces parapsilosis
# Candida albicans = assay: Antifungal activity against Candida albicans assessed as inhibition of fungal growth measured after 48 hrs by CLSI based agar dilution method
# Pichia kudriavzevii [1] = assay: Antifungal activity against Candida krusei assessed as inhibition of fungal growth measured after 48 hrs by CLSI based agar dilution method
# Pichia kudriavzevii [2] = assay: Antifungal activity against Candida krusei ATCC 6258 assessed as inhibition of fungal growth measured after 48 hrs by CLSI based agar dilution method
# Candida tropicalis = assay: Antifungal activity against Candida tropicalis assessed as inhibition of fungal growth measured after 48 hrs by CLSI based agar dilution method
Compound,MIC (Cryptococcus neoformans),MIC (Candida parapsilosis),MIC (Candida albicans),MIC (Pichia kudriavzevii [1]),MIC (Pichia kudriavzevii [2]),MIC (Candida tropicalis)
C[C@@H]1[C@H](O)[C@@H](C)/C=C/C=C/C=C/C=C/C=C/C=C/C=C/[C@H](O[C@@H]2O[C@H](C)[C@@H](O)[C@H](NC(=O)CN)[C@@H]2O)C[C@@H]2O[C@](O)(C[C@@H](O)C[C@@H](O)[C@H](O)CC[C@@H](O)C[C@@H](O)CC(=O)O[C@H]1C)C[C@H](O)[C@H]2C(=O)NCCO,2 µg/mL,4 µg/mL,1 µg/mL,2 µg/mL,4 µg/mL,4 µg/mL
CC(C)C(=O)NNC(=O)[C@H]1[C@@H]2C[C@@H](O[C@@H]3O[C@H](C)[C@@H](O)[C@H](N)[C@@H]3O)/C=C/C=C/C=C/C=C/C=C/C=C/C=C/[C@H](C)[C@@H](O)[C@@H](C)[C@H](C)OC(=O)C[C@H](O)C[C@H](O)CC[C@@H](O)[C@H](O)C[C@H](O)C[C@](O)(C[C@@H]1O)O2,0.06 µg/mL,1 µg/mL,0.03 µg/mL,0.5 µg/mL,1 µg/mL,0.5 µg/mL
CNCC(=O)N[C@@H]1[C@H](O)[C@H](O[C@H]2/C=C/C=C/C=C/C=C/C=C/C=C/C=C/[C@H](C)[C@@H](O)[C@@H](C)[C@H](C)OC(=O)C[C@H](O)C[C@H](O)CC[C@@H](O)[C@H](O)C[C@H](O)C[C@]3(O)C[C@H](O)[C@@H](C(=O)NCCCN(C)C)[C@H](C2)O3)O[C@H](C)[C@H]1O,1 µg/mL,4 µg/mL,2 µg/mL,2 µg/mL,16 µg/mL,2 µg/mL
CNCCOCC(=O)N[C@@H]1[C@H](O)[C@H](O[C@H]2/C=C/C=C/C=C/C=C/C=C/C=C/C=C/[C@H](C)[C@@H](O)[C@@H](C)[C@H](C)OC(=O)C[C@H](O)C[C@H](O)CC[C@@H](O)[C@H](O)C[C@H](O)C[C@]3(O)C[C@H](O)[C@@H](C(=O)N4CCN(CCO)CC4)[C@H](C2)O3)O[C@H](C)[C@H]1O,1 µg/mL,2 µg/mL,1 µg/mL,2 µg/mL,16 µg/mL,1 µg/mL
CNCC(=O)N[C@@H]1[C@H](O)[C@H](O[C@H]2/C=C/C=C/C=C/C=C/C=C/C=C/C=C/[C@H](C)[C@@H](O)[C@@H](C)[C@H](C)OC(=O)C[C@H](O)C[C@H](O)CC[C@@H](O)[C@H](O)C[C@H](O)C[C@]3(O)C[C@H](O)[C@@H](C(=O)N4CCN(C(C)=O)CC4)[C@H](C2)O3)O[C@H](C)[C@H]1O,2 µg/mL,4 µg/mL,2 µg/mL,4 µg/mL,8 µg/mL,4 µg/mL
CCC(=O)NNC(=O)[C@H]1[C@@H]2C[C@@H](O[C@@H]3O[C@H](C)[C@@H](O)[C@H](N)[C@@H]3O)/C=C/C=C/C=C/C=C/C=C/C=C/C=C/[C@H](C)[C@@H](O)[C@@H](C)[C@H](C)OC(=O)C[C@H](O)C[C@H](O)CC[C@@H](O)[C@H](O)C[C@H](O)C[C@](O)(C[C@@H]1O)O2,0.03 µg/mL,1 µg/mL,0.25 µg/mL,0.5 µg/mL,0.5 µg/mL,0.5 µg/mL
CNCC(=O)N[C@@H]1[C@H](O)[C@H](O[C@H]2/C=C/C=C/C=C/C=C/C=C/C=C/C=C/[C@H](C)[C@@H](O)[C@@H](C)[C@H](C)OC(=O)C[C@H](O)C[C@H](O)CC[C@@H](O)[C@H](O)C[C@H](O)C[C@]3(O)C[C@H](O)[C@@H](C(=O)N4CCN(C(=O)COCCOC)CC4)[C@H](C2)O3)O[C@H](C)[C@H]1O,4 µg/mL,4 µg/mL,4 µg/mL,8 µg/mL,16 µg/mL,16 µg/mL
C[C@@H]1[C@H](O)[C@@H](C)/C=C/C=C/C=C/C=C/C=C/C=C/C=C/[C@H](O[C@@H]2O[C@H](C)[C@@H](O)[C@H](N)[C@@H]2O)C[C@@H]2O[C@](O)(C[C@@H](O)C[C@@H](O)[C@H](O)CC[C@@H](O)C[C@@H](O)CC(=O)O[C@H]1C)C[C@H](O)[C@H]2C(=O)NNC(=O)c1ccc(Cl)cc1,2 µg/mL,16 µg/mL,4 µg/mL,8 µg/mL,16 µg/mL,8 µg/mL
C[C@@H]1[C@H](O)[C@@H](C)/C=C/C=C/C=C/C=C/C=C/C=C/C=C/[C@H](O[C@@H]2O[C@H](C)[C@@H](O)[C@H](NC(=O)CCN)[C@@H]2O)C[C@@H]2O[C@](O)(C[C@@H](O)C[C@@H](O)[C@H](O)CC[C@@H](O)C[C@@H](O)CC(=O)O[C@H]1C)C[C@H](O)[C@H]2C(=O)NCCN,0.25 µg/mL,0.125 µg/mL,0.125 µg/mL,0.5 µg/mL,1 µg/mL,0.25 µg/mL
C[C@@H]1[C@H](O)[C@@H](C)/C=C/C=C/C=C/C=C/C=C/C=C/C=C/[C@H](O[C@@H]2O[C@H](C)[C@@H](O)[C@H](NC(=O)CCN)[C@@H]2O)C[C@@H]2O[C@](O)(C[C@@H](O)C[C@@H](O)[C@H](O)CC[C@@H](O)C[C@@H](O)CC(=O)O[C@H]1C)C[C@H](O)[C@H]2C(=O)NCCN(C)C,0.125 µg/mL,2 µg/mL,0.5 µg/mL,0.5 µg/mL,16 µg/mL,0.5 µg/mL
